The values below come from patent publication US20240208950A1, “COMPOSITIONS AND METHODS FOR TREATMENT OF CERVICAL AND OVARIAN CANCER” (SOUTH DAKOTA BOARD OF REGENTS, priority 2021, published 2024).

Assay [1] deals with EMT markers and MMPs in CaSki cells. Description: Western blot for EMT markers and MMPs, CaSki. It counts as cell-based, human. The note with it: 24 hours. As for the experimental part:
In a further example, cell lysates and western blot analysis was conducted for EMT markers and MMPs. […] In this example, about 70% of confluent SiHa and CaSki were treated with ORM-Br ([…]) for 24 hours. Cell lysates were prepared, and western blot analysis were conducted for EMT markers and MMPs analysis. The effect of ORM-Br on protein levels of cell-cycle regulatory proteins (cyclin E1 and p27) in both CaSki and SiHa cell lines are shown.
The effect of Br-ORM on protein expression in cervical cancer cells were determined by Western blot analysis by using specific antibodies.
Epithelial mesenchymal transition (EMT) is the basic characteristic of cancer cells in which epithelial cells undergo morphologic and molecular changes that transform the cells to mesenchymal, highly metastatic (invasive and motile), and drug-resistant phenotypes. Thus, targeting EMT may reduce the invasive phenotypes of a cancer cell and have significant advantage to overcome drug resistance. It has been reported that β-catenin is involved in invasion and metastasis via inducing EMT in various tumor cells. The effect of Br-ORM treatment on various EMT markers in cervical cancer cells was evaluated. […] The effect of Br-ORM on expression of EMT markers in cervical cancer cells compared to untreated group by use of qPCR analysis was determined. […] Expression of E-cadherin in cervical cancer cells treated with Br-ORM (10 μM) for 18 hours was also determined by immunofluorescence and confocal microscopy. Images were captured under 60× magnification and representative images are presented (FIG. 14G).
FIG. 14. Br-ORM decreases migration, invasion and attenuates EMT in cervical cancer cells. Effect of Br-ORM on cell migration of cervical cancer cells as determined by agarose bead (FIG. 14A), scratch wound healing (FIG. 14B), and Boyden chamber assay (FIG. 14C). AB denotes agarose bead while MC denotes migratory cells. Arrows indicate the distance of cervical cancer (CaSki and SiHa) cells migration in control and Br-ORM treated groups (FIG. 14A(i)-(ii)). […] Closure of wound was determined and photographed using phase contrast microscopy. […] Bar graph represent the quantification of migrated CaSki cells of control and Br-ORM treated groups (FIG. 14C(ii)). […] Effect of Br-ORM treatment on invasion of CaSki cells as determined by a commercially available kit (BD Biosciences) as described in materials and methods. In brief, 24 hours post-treatment of Br-ORM, invaded cells were fixed, stained and counted. […] Bar graph represent the quantification of invaded CaSki cells of control and Br-ORM treated groups (FIG. 14D(ii)). […] Effect of Br-ORM on E-cadherin expression in cervical cancer cells as determined by confocal microscopy in control and Br-ORM treated cells after 18 hours.

In another assay the test system is SiHa cells. Description: Cell invasion assay (Boyden chamber and xCELLigence), SiHa. It counts as cell-based, human. The text has this:
FIGS. 8A and 8B show the effect of ORM-Br on invasion of CaSki (FIG. 8A) and SiHa (FIG. 8B) cell lines in Boyden chamber and xCELLigence assay. The images represent the invaded cells of control and ORM-Br-treated CaSki and SiHa cells as determined by Boyden Chamber kit. The magnification was at 20 for the images of FIGS. 8A and 8B.

Turning to `COc1ccc2c(c1)OC(C)(C)C(c1ccc(Br)cc1)C2c1ccc(OCCN2CCCC2)cc1` (centres unmarked) [ORM-Br], in assay [1], the “EMT associated markers (N-cadherin, vimentin and snail) expression” value is on record as “inhibits the EMT associated markers”; the “expression of E-cadherin” value was “induced the expression of E-cadherin”; the “expression of MMP2 and MMP9” value was “inhibited the expression of MMP2 and MMP9”. For the same compound, the “EMT associated markers (N-cadherin, vimentin and snail) expression” value in assay [1] (listed as Br-ORM) is recorded as “marked inhibition”. The cell invasion entry in the assay with SiHa cells was “inhibits the invasion”.
